Results reported in US20240300932A1, “N-PHENYLIMINE DERIVATIVE AND PREPARATION METHOD AND USE THEREOF” (Guizhou University, priority 2023, published 2024).

Key:
Trifoliumre pensL. = experiment: Post-emergence herbicidal activity test (stem and leaf spray, pot culture); assay type: in vivo; settings: 3 weeks after spraying
Procedure, shortened: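 Rates of 10, 5 and 2.5 g/mu were applied in a single spray-tower treatment to 2–3-leaf plants, thinned to 10 per pot. Formulation: acetone solution, Tween 80, 1.5 L/ha methyl oleate synergist. Weed response assessed after 3 further greenhouse weeks; mean of three experiments.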

Portulaca oleracea = experiment: as above; assay type: in vivo; settings: 3 weeks after spraying
Procedure, shortened: (§1)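 Read-out: fresh weight control rate 3 weeks post-spray, graded 5 (≥85%) down to 0 (<5%). Foliar spray at 2–3-leaf stage; rates 10, 5, 2.5 g/mu; acetone + Tween 80 formulation with methyl oleate synergist; greenhouse 20–30 °C, natural light.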

Amaranthus retroflexus = experiment: as above; assay type: in vivo; settings: 3 weeks after spraying
Procedure, shortened: as §1

Abutilon theophrasti = experiment: as above; assay type: in vivo; settings: 3 weeks after spraying
Procedure, shortened: as §1

Setaria viridis = experiment: as above; assay type: in vivo; settings: 3 weeks after spraying
Procedure, shortened: as §1

Echinochloa crusgalli = experiment: as above; assay type: in vivo; settings: 3 weeks after spraying
Procedure, shortened: as §1

Row | Compound | Post-emergence herbicidal activity, Trifoliumre pensL. (grade) (Trifoliumre pensL.; dosage 2.5 g/mu) | Post-emergence herbicidal activity, Trifoliumre pensL. (grade) (Trifoliumre pensL.; dosage 5 g/mu) | Post-emergence herbicidal activity, Trifoliumre pensL. (grade) (Trifoliumre pensL.; dosage 10 g/mu) | Post-emergence herbicidal activity, P. oleracea (grade) (Portulaca oleracea; dosage 2.5 g/mu) | Post-emergence herbicidal activity, P. oleracea (grade) (Portulaca oleracea; dosage 5 g/mu) | Post-emergence herbicidal activity, P. oleracea (grade) (Portulaca oleracea; dosage 10 g/mu) | Post-emergence herbicidal activity, A. retroflexus (grade) (Amaranthus retroflexus; dosage 2.5 g/mu) | Post-emergence herbicidal activity, A. retroflexus (grade) (Amaranthus retroflexus; dosage 5 g/mu) | Post-emergence herbicidal activity, A. retroflexus (grade) (Amaranthus retroflexus; dosage 10 g/mu) | Post-emergence herbicidal activity, A. theophrasti (grade) (Abutilon theophrasti; dosage 2.5 g/mu) | Post-emergence herbicidal activity, A. theophrasti (grade) (Abutilon theophrasti; dosage 5 g/mu) | Post-emergence herbicidal activity, A. theophrasti (grade) (Abutilon theophrasti; dosage 10 g/mu) | Post-emergence herbicidal activity, S. viridis (grade) (Setaria viridis; dosage 2.5 g/mu) | Post-emergence herbicidal activity, S. viridis (grade) (Setaria viridis; dosage 5 g/mu) | Post-emergence herbicidal activity, S. viridis (grade) (Setaria viridis; dosage 10 g/mu) | Post-emergence herbicidal activity, E. crusgalli (grade) (Echinochloa crusgalli; dosage 2.5 g/mu) | Post-emergence herbicidal activity, E. crusgalli (grade) (Echinochloa crusgalli; dosage 5 g/mu) | Post-emergence herbicidal activity, E. crusgalli (grade) (Echinochloa crusgalli; dosage 10 g/mu) | melting point [°C]
1 | O=C(COc1cc(N2C(=O)C3=C(CCCC3)C2=O)c(F)cc1Cl)c1ccccc1F [Compound C4, 2-(4-chloro-2-fluoro-5-(2-oxo-2-(2-fluorophenyl)ethoxy)phenyl)-4,5,6,7-tetrahydro-1H-isoindole-1,3(2H)-dione] | 5 (Grade 5: the growth control rate is greater than or equal to 85%) | 5 (Grade 5: the growth control rate is greater than or equal to 85%) | 5 (Grade 5: the growth control rate is greater than or equal to 85%) | 5 (Grade 5: the growth control rate is greater than or equal to 85%) | 5 (Grade 5: the growth control rate is greater than or equal to 85%) | 5 (Grade 5: the growth control rate is greater than or equal to 85%) | 5 (Grade 5: the growth control rate is greater than or equal to 85%) | 5 (Grade 5: the growth control rate is greater than or equal to 85%) | 5 (Grade 5: the growth control rate is greater than or equal to 85%) | 5 (Grade 5: the growth control rate is greater than or equal to 85%) | 5 (Grade 5: the growth control rate is greater than or equal to 85%) | 5 (Grade 5: the growth control rate is greater than or equal to 85%) | 2 (Grade 2: the growth control rate is greater than or equal to 20% and less than 40%) | 3 (Grade 3: the growth control rate is greater than or equal to 40% and less than 60%) | 4 (Grade 4: the growth control rate is greater than or equal to 60% and less than 85%) | 1 (Grade 1: the growth control rate is greater than or equal to 5% and less than 20%) | 2 (Grade 2: the growth control rate is greater than or equal to 20% and less than 40%) | 3 (Grade 3: the growth control rate is greater than or equal to 40% and less than 60%) | 141 to 143
2 | O=C(COc1cc(N2C(=O)C3=C(CCCC3)C2=O)c(F)cc1Cl)c1cc(F)cc(F)c1 [Compound C5, 2-(4-chloro-2-fluoro-5-(2-oxo-2-(3,5-difluorophenyl)ethoxy)phenyl)-4,5,6,7-tetrahydro-1H-isoindole-1,3(2H)-dione] | 5 (Grade 5: the growth control rate is greater than or equal to 85%) | 5 (Grade 5: the growth control rate is greater than or equal to 85%) | 5 (Grade 5: the growth control rate is greater than or equal to 85%) | 5 (Grade 5: the growth control rate is greater than or equal to 85%) | 5 (Grade 5: the growth control rate is greater than or equal to 85%) | 5 (Grade 5: the growth control rate is greater than or equal to 85%) | 5 (Grade 5: the growth control rate is greater than or equal to 85%) | 5 (Grade 5: the growth control rate is greater than or equal to 85%) | 5 (Grade 5: the growth control rate is greater than or equal to 85%) | 5 (Grade 5: the growth control rate is greater than or equal to 85%) | 5 (Grade 5: the growth control rate is greater than or equal to 85%) | 5 (Grade 5: the growth control rate is greater than or equal to 85%) | 2 (Grade 2: the growth control rate is greater than or equal to 20% and less than 40%) | 3 (Grade 3: the growth control rate is greater than or equal to 40% and less than 60%) | 4 (Grade 4: the growth control rate is greater than or equal to 60% and less than 85%) | 1 (Grade 1: the growth control rate is greater than or equal to 5% and less than 20%) | 2 (Grade 2: the growth control rate is greater than or equal to 20% and less than 40%) | 3 (Grade 3: the growth control rate is greater than or equal to 40% and less than 60%) | 135 to 137
3 | O=C(COc1cc(N2C(=O)C3=C(CCCC3)C2=O)c(F)cc1Cl)c1ccc(F)cc1 [Compound C8, 2-(4-chloro-2-fluoro-5-(2-oxo-2-(4-fluorophenyl)ethoxy)phenyl)-4,5,6,7-tetrahydro-1H-isoindole-1,3(2H)-dione] | 5 (Grade 5: the growth control rate is greater than or equal to 85%) | 5 (Grade 5: the growth control rate is greater than or equal to 85%) | 5 (Grade 5: the growth control rate is greater than or equal to 85%) | 5 (Grade 5: the growth control rate is greater than or equal to 85%) | 5 (Grade 5: the growth control rate is greater than or equal to 85%) | 5 (Grade 5: the growth control rate is greater than or equal to 85%) | 5 (Grade 5: the growth control rate is greater than or equal to 85%) | 5 (Grade 5: the growth control rate is greater than or equal to 85%) | 5 (Grade 5: the growth control rate is greater than or equal to 85%) | 5 (Grade 5: the growth control rate is greater than or equal to 85%) | 5 (Grade 5: the growth control rate is greater than or equal to 85%) | 5 (Grade 5: the growth control rate is greater than or equal to 85%) | 2 (Grade 2: the growth control rate is greater than or equal to 20% and less than 40%) | 3 (Grade 3: the growth control rate is greater than or equal to 40% and less than 60%) | 4 (Grade 4: the growth control rate is greater than or equal to 60% and less than 85%) | 1 (Grade 1: the growth control rate is greater than or equal to 5% and less than 20%) | 2 (Grade 2: the growth control rate is greater than or equal to 20% and less than 40%) | 3 (Grade 3: the growth control rate is greater than or equal to 40% and less than 60%) | 126 to 128
4 | O=C(COc1cc(N2C(=O)C3=C(CCCC3)C2=O)c(F)cc1Cl)c1ccc([N+](=O)[O-])cc1 [Compound C9, 2-(4-chloro-2-fluoro-5-(2-oxo-2-(4-nitrophenyl)ethoxy)phenyl)-4,5,6,7-tetrahydro-1H-isoindole-1,3(2H)-dione] | 5 (Grade 5: the growth control rate is greater than or equal to 85%) | 5 (Grade 5: the growth control rate is greater than or equal to 85%) | 5 (Grade 5: the growth control rate is greater than or equal to 85%) | 5 (Grade 5: the growth control rate is greater than or equal to 85%) | 5 (Grade 5: the growth control rate is greater than or equal to 85%) | 5 (Grade 5: the growth control rate is greater than or equal to 85%) | 5 (Grade 5: the growth control rate is greater than or equal to 85%) | 5 (Grade 5: the growth control rate is greater than or equal to 85%) | 5 (Grade 5: the growth control rate is greater than or equal to 85%) | 5 (Grade 5: the growth control rate is greater than or equal to 85%) | 5 (Grade 5: the growth control rate is greater than or equal to 85%) | 5 (Grade 5: the growth control rate is greater than or equal to 85%) | 2 (Grade 2: the growth control rate is greater than or equal to 20% and less than 40%) | 3 (Grade 3: the growth control rate is greater than or equal to 40% and less than 60%) | 4 (Grade 4: the growth control rate is greater than or equal to 60% and less than 85%) | 1 (Grade 1: the growth control rate is greater than or equal to 5% and less than 20%) | 2 (Grade 2: the growth control rate is greater than or equal to 20% and less than 40%) | 3 (Grade 3: the growth control rate is greater than or equal to 40% and less than 60%) | 148 to 150
